Data as given in US20210038566A1, “USE OF MODULATORS OF NEET PROTEINS FOR THE TREATMENT OF INFECTION” (ENYO PHARMA, priority 2018, published 2021).

System: H1N1 (influenza A/New Caledonia/20/99)
Experiment: microbe, parasite or virus in culture
Format: cell-based
Settings: H1N1, A549, 48 h, read-out: IC50 (antiviral effect, Influenza replication)

Q: For COc1ccc(C(=O)Nc2sc3c(c2C(=O)O)CCC(C)(C)C3)cc1OC [Compound #18], which IC50 is on record?
A: 0.05 µM

Q: With CCOC(=O)N1CCC(NC(=S)Nc2cc(Cl)cc(Cl)c2)CC1 [Compound T01001, ethyl-4-(3-(3,5-dichlorophenyl)thioureido)piperidine-1-carboxylate] as the compound, how does the IC50 read?
A: 18 µM

Q: Which IC50 does the source give for CCc1ccc(CCOc2ccc(CC3SC(=O)NC3=O)cc2)nc1 (stereo not drawn) [Pioglitazone] here?
A: 38 µM
